Results reported in paper PMC6271338, “Synthesis and Cytotoxic Evaluation of Alkoxylated Chalcones” (Molecules, 2014).
Where “and” joins values, the source holds several entries; their conditions need not be identical. Identical values can stand only once.

What was measured:
[1] = tested on: five human cancer cell lines (HepG2, HeLa, MCF-7, A549 and SW1990); assay: In vitro anti-proliferative SRB assay, summary statements over the five-line panel; assay type: cell-based; conditions: most of their in vitro IC50 values against the five human cancer lines
Experimental: With a aim of identifying potential anticancer agents with enhanced levels of activity, as well as verifying the conclusions provided above, we took a14 as a starting compound, and then designed and synthesized a series of chalcones b1–42 bearing methoxy groups at the 2' and 6'-positions of the B-ring, whilst varying the substituents on the A-ring. The cytotoxicities of the resulting chalcones were evaluated in vitro against five human cancer cell lines and other two non-tumoral cell lines, including HepG2, HeLa, MCF-7, A549, SW1990, HMLE and L02, and the results are shown in Table 2.
HepG2 and MCF7 cells were grown in the Eagle’s minimum essential medium with Earle’s balanced salts (MEM-EBSS) medium, HeLa, A549 and L02 cells were grown in Dulbecco’s Modified Eagle Media (DMEM), SW1990 cells were grown in RPMI-1640 medium, and HMLE cell were grown in DMEM/F-12 medium. The media were supplemented with 100 U/mL penicillin, […] streptomycin and 10% fetal bovine serum (FBS), and incubated at 37 °C in a humidified atmosphere containing 5% CO2.
Cells were seeded into 96-well plates (4000 cells/well) and incubated at 37 °C in a humidified 5% CO2 atmosphere. After 24 h, the cells were treated with different concentrations of the compounds for 48 h in triplicate to generate dose-response curves. Cell viability was evaluated using the sulforhodamine B (SRB) assay as previous described. […] Etoposide was used as the positive control.

SW1990 cells = assay: In vitro anti-proliferative SRB assay, SW1990; assay type: cell-based, human; conditions: for IC50: Homo sapiens, SW1990, increasing concentrations up to 30 μM, mean ± SD of at least three independent experiments; for SI (CC50 HMLE/IC50 SW1990) / SI (CC50 L02/IC50 SW1990): selectivity index; for SI (CC50 HMLE/IC50 SW1990): HMLE vs SW1990; for SI (CC50 L02/IC50 SW1990): L02 vs SW1990
[2] = Cytotoxicity (SRB) against non-tumoral HMLE cells; assay type: cell-based, human; conditions: human, HMLE cells (non-tumoral human mammary epithelial cells); increasing concentrations up to 100 μM; mean ± SD of at least three independent experiments; read-out: Normal Human Cell Lines, CC50, HMLE
[3] = tested on: human mammary epithelial cell (HMLE); assay: Cytotoxicity (SRB) against non-tumoral HMLE cells; assay type: cell-based; conditions: HMLE versus the five tumoral cell lines
A549 cells = assay: In vitro anti-proliferative SRB assay, A549; assay type: cell-based, human; conditions: for IC50: Homo sapiens, A549, increasing concentrations up to 30 μM, mean ± SD of at least three independent experiments; for SI (CC50 HMLE/IC50 A549) / SI (CC50 L02/IC50 A549): selectivity index; for SI (CC50 HMLE/IC50 A549): HMLE vs A549; for SI (CC50 L02/IC50 A549): L02 vs A549
HeLa cells = assay: In vitro anti-proliferative SRB assay, HeLa; assay type: cell-based, human; conditions: for IC50: Homo sapiens, HeLa, increasing concentrations up to 30 μM, mean ± SD of at least three independent experiments; for SI (CC50 HMLE/IC50 Hela) / SI (CC50 L02/IC50 Hela): selectivity index; for SI (CC50 HMLE/IC50 Hela): HMLE vs HeLa; for SI (CC50 L02/IC50 Hela): L02 vs HeLa
MCF-7 cells = assay: In vitro anti-proliferative SRB assay, MCF-7; assay type: cell-based, human; conditions: for IC50: Homo sapiens, MCF7, increasing concentrations up to 30 μM, mean ± SD of at least three independent experiments; for SI (CC50 HMLE/IC50 MCF7) / SI (CC50 L02/IC50 MCF7): selectivity index; for SI (CC50 HMLE/IC50 MCF7): HMLE vs MCF7; for SI (CC50 L02/IC50 MCF7): L02 vs MCF7
HepG2 cells = assay: In vitro anti-proliferative SRB assay, HepG2; assay type: cell-based, human; conditions: for IC50: Homo sapiens, HepG2, increasing concentrations up to 30 μM, mean ± SD of at least three independent experiments; for SI (CC50 HMLE/IC50 HepG2) / SI (CC50 L02/IC50 HepG2): selectivity index; for SI (CC50 HMLE/IC50 HepG2): HMLE vs HepG2; for SI (CC50 L02/IC50 HepG2): L02 vs HepG2
[4] = Cytotoxicity (SRB) against non-tumoral L02 cells; assay type: cell-based, human; conditions: human, L02 cells (non-tumoral human liver cell line); increasing concentrations up to 100 μM; mean ± SD of at least three independent experiments; read-out: Normal Human Cell Lines, CC50, L02
[5] = tested on: L02 (a human liver cell line); assay: Cytotoxicity (SRB) against non-tumoral L02 cells; assay type: cell-based; conditions: L02 versus the five tumoral cell lines

COc1cccc(OC)c1/C=C/C(=O)c1ccccc1OCc1ccccc1 [b11, (E)-1-(2-(Benzyloxy>)phenyl)-3-(2,6-dimethoxyphenyl)prop-2-en-1-one]
IC50 [1]: < 10 µM | IC50 (SW1990 cells): 7.43 ± 0.56 µM | SI (CC50 HMLE/IC50 SW1990) (SW1990 cells): 2.8 | SI (CC50 L02/IC50 SW1990) (SW1990 cells): 5.2 | CC50 at 48 h [2]: 21 ± 1.26 µM | SI between the CC50 in HMLE and IC50 in tumoral cells [3]: 2–7 fold | IC50 (A549 cells): 3.63 ± 0.13 µM | SI (CC50 HMLE/IC50 A549) (A549 cells): 5.8 | SI (CC50 L02/IC50 A549) (A549 cells): 10.5 | IC50 (HeLa cells): 3.62 ± 0.07 µM | SI (CC50 HMLE/IC50 Hela) (HeLa cells): 5.8 | SI (CC50 L02/IC50 Hela) (HeLa cells): 10.6 | IC50 (MCF-7 cells): 4.15 ± 0.2 µM | SI (CC50 HMLE/IC50 MCF7) (MCF-7 cells): 5.1 | SI (CC50 L02/IC50 MCF7) (MCF-7 cells): 9.2 | IC50 (HepG2 cells): 2.76 ± 0.04 µM | SI (CC50 HMLE/IC50 HepG2) (HepG2 cells): 7.6 | SI (CC50 L02/IC50 HepG2) (HepG2 cells): 13.9 | melting point: 94.6 to 97.9 °C | CC50 at 48 h [4]: 38.3 ± 5.63 µM

COc1cc(C(=O)/C=C/c2c(OC)cccc2OC)ccc1O [b29, (E)-1-(4-Hydroxy-3-methoxyphenyl)-3-(2,6-dimethoxyphenyl)prop-2-en-1-one]
IC50 [1]: < 10 µM | IC50 (SW1990 cells): 3.03 ± 0.05 µM | SI (CC50 HMLE/IC50 SW1990) (SW1990 cells): 2.1 | SI (CC50 L02/IC50 SW1990) (SW1990 cells): >33.0 | CC50 at 48 h [2]: 6.31 ± 0.13 µM | SI between the CC50 in HMLE and IC50 in tumoral cells [3]: 2–7 fold and 2.1–6.5 fold | fold more potent than etoposide (A549 cells; A549 cells, ratio of IC50 values versus etoposide): 11.5 fold | IC50 (A549 cells): 1.5 ± 0.07 µM | SI (CC50 HMLE/IC50 A549) (A549 cells): 4.2 | SI (CC50 L02/IC50 A549) (A549 cells): >66.7 | IC50 (HeLa cells): 1.83 ± 0.08 µM | SI (CC50 HMLE/IC50 Hela) (HeLa cells): 3.4 | SI (CC50 L02/IC50 Hela) (HeLa cells): >54.6 | IC50 (MCF-7 cells): 1.79 ± 0.2 µM | SI (CC50 HMLE/IC50 MCF7) (MCF-7 cells): 3.5 | SI (CC50 L02/IC50 MCF7) (MCF-7 cells): >55.9 | IC50 (HepG2 cells): 0.97 ± 0.04 µM | SI (CC50 HMLE/IC50 HepG2) (HepG2 cells): 6.5 | SI (CC50 L02/IC50 HepG2) (HepG2 cells): >103.1 | melting point: 128.7 to 131.2 °C | CC50 at 48 h [4]: > 100 µM

CCOc1ccccc1C(=O)/C=C/c1c(OC)cccc1OC [b8, (E)-1-(2-Ethoxyphenyl)-3-(2,6-dimethoxyphenyl)prop-2-en-1-one]
IC50 [1]: < 10 µM | IC50 (SW1990 cells): 8.2 ± 0.12 µM | SI (CC50 HMLE/IC50 SW1990) (SW1990 cells): 0.1 | SI (CC50 L02/IC50 SW1990) (SW1990 cells): 4.8 | CC50 at 48 h [2]: 0.83 ± 0.21 µM | IC50 (A549 cells): 7.36 ± 0.37 µM | SI (CC50 HMLE/IC50 A549) (A549 cells): 0.1 | SI (CC50 L02/IC50 A549) (A549 cells): 5.4 | IC50 (HeLa cells): 8.72 ± 0.07 µM | SI (CC50 HMLE/IC50 Hela) (HeLa cells): 0.1 | SI (CC50 L02/IC50 Hela) (HeLa cells): 4.5 | IC50 (MCF-7 cells): 8.56 ± 0.17 µM | SI (CC50 HMLE/IC50 MCF7) (MCF-7 cells): 0.1 | SI (CC50 L02/IC50 MCF7) (MCF-7 cells): 4.6 | IC50 (HepG2 cells): 4.23 ± 0.09 µM | SI (CC50 HMLE/IC50 HepG2) (HepG2 cells): 0.2 | SI (CC50 L02/IC50 HepG2) (HepG2 cells): 9.3 | melting point: 48.8 to 50.4 °C | CC50 at 48 h [4]: 39.6 ± 7.53 µM | SI between the CC50 in L02 and IC50 in tumoral cells [5]: more than 2 fold

COc1cccc(OC)c1/C=C/C(=O)c1ccccc1F [b31, (E)-1-(2-Fluorophenyl)-3-(2,6-dimethoxyphenyl)prop-2-en-1-one]
IC50 (SW1990 cells): > 30 µM | CC50 at 48 h [2]: > 100 µM | SI between the CC50 in HMLE and IC50 in tumoral cells [3]: 2–7 fold | IC50 (A549 cells): 27.4 ± 0.67 µM | SI (CC50 HMLE/IC50 A549) (A549 cells): >3.6 | SI (CC50 L02/IC50 A549) (A549 cells): >3.6 | IC50 (HeLa cells): 23.3 ± 0.42 µM | SI (CC50 HMLE/IC50 Hela) (HeLa cells): >4.3 | SI (CC50 L02/IC50 Hela) (HeLa cells): >4.3 | IC50 (MCF-7 cells): 23.5 ± 0.98 µM | SI (CC50 HMLE/IC50 MCF7) (MCF-7 cells): >4.3 | SI (CC50 L02/IC50 MCF7) (MCF-7 cells): >4.3 | IC50 (HepG2 cells): 18 ± 0.88 µM | SI (CC50 HMLE/IC50 HepG2) (HepG2 cells): >5.6 | SI (CC50 L02/IC50 HepG2) (HepG2 cells): >5.6 | melting point: 66.6 to 68.1 °C | CC50 at 48 h [4]: > 100 µM

COc1cccc(OC)c1/C=C/C(=O)c1cccc(Cl)c1 [b34, (E)-1-(3-Chlorophenyl)-3-(2,6-dimethoxyphenyl)prop-2-en-1-one]
IC50 (SW1990 cells): 21.4 µM | SI (CC50 HMLE/IC50 SW1990) (SW1990 cells): 0.4 | SI (CC50 L02/IC50 SW1990) (SW1990 cells): 2.2 | CC50 at 48 h [2]: 9.42 ± 1.21 µM | IC50 (A549 cells): 16.1 µM | SI (CC50 HMLE/IC50 A549) (A549 cells): 0.6 | SI (CC50 L02/IC50 A549) (A549 cells): 2.9 | IC50 (HeLa cells): 16.6 µM | SI (CC50 HMLE/IC50 Hela) (HeLa cells): 0.6 | SI (CC50 L02/IC50 Hela) (HeLa cells): 2.8 | IC50 (MCF-7 cells): 22 µM | SI (CC50 HMLE/IC50 MCF7) (MCF-7 cells): 0.4 | SI (CC50 L02/IC50 MCF7) (MCF-7 cells): 2.1 | IC50 (HepG2 cells): 13.5 µM | SI (CC50 HMLE/IC50 HepG2) (HepG2 cells): 0.7 | SI (CC50 L02/IC50 HepG2) (HepG2 cells): 3.5 | melting point: 116.5 to 117.2 °C | CC50 at 48 h [4]: 46.9 ± 13.9 µM | SI between the CC50 in L02 and IC50 in tumoral cells [5]: more than 2 fold
